One compound from paper PMC3170910, “Screening of Supports for the Immobilization of β-Glucosidase” (Enzyme Research, 2011) can be followed below.

This test has as its system T1, β-glucosidase.
T1 construct: gene beta-D-glucoside glucohydrolase; not purified to one protein, isoenzyme not defined
As to the kind of experiment: p-nitrophenol release at […] nm; nonlinear fit (Solver). The test is classed as biochemical, Aspergillus sp. Conditions: free enzyme, partially purified extract; acetate buffer, optimal pH (4.5) and temperature (65 °C optimum).

Broadly, the Km is the concentration of substrate that gives half-maximal velocity. `O=[N+]([O-])c1ccc(O[C@@H]2O[C@H](CO)[C@@H](O)[C@H](O)[C@H]2O)cc1` [4-Nitrophenyl-β-D-glucopyranoside]: the Km was 1600 µM.
